Source: paper PMC2248166, “Quantitative peptide binding motifs for 19 human and mouse MHC class I molecules derived using positional scanning combinatorial peptide libraries” (Immunome Research, 2008)

Assays:
HLA A*3001 = HLA A*3001 (Homo sapiens, UniProt P04439, D140H/D185E/E176W/F33S/G80R/H175R/K168Q/R138E/R41S); assay: biochemical; type: binding
HLA A*3201 = HLA A*3201 (Homo sapiens, UniProt P04439, A270S/D101S/D185E/E176V/E277Q/F133L/G103R/G107R/G231S/H175R/I121M/I218V/I322F/K168Q/L105A/L300P/L318F/M331R/P208A/P217A/Q94H/R106L/R138Q/S129P/T104I/T323A/T345S/V100E/V321M/V358M); assay: biochemical; type: binding
HLA A*6802 = HLA A*6802 (Homo sapiens, UniProt P04439, A269V/D140Y/D185E/E176V/E277Q/E87N/F33Y/G231S/I121R/I166T/I218V/L180W/L300P/L318F/N151K/P208A/P217A/Q86R/R138H/R169H/S129P/T345S/V36M); type: binding
HLA B*0702 = HLA B*0702 (Homo sapiens, UniProt P01889); type: binding; details: positional scanning combinatorial 9-mer library; normalized to 1.0 for the best residue at each position
HLA B*0801 = HLA B*0801 (Homo sapiens, UniProt P01889, A93T/A95T/D138N/E176V/E187T/K202T/Q94N/R180D/S35A/V36M/Y33D/Y91F); assay: biochemical; type: binding
HLA B*1501 = HLA B*1501 (Homo sapiens, UniProt P01889, A329T/A93T/A95T/C349S/D201E/D98Y/E187L/E204Q/E69M/E70A/K202T/N87E/Q94N/R155S/R180W/S121R/S35A/S48A/V306I/V36M/Y140S/Y91S); assay: biochemical; type: binding
HLA B*1503 = HLA B*1503 (Homo sapiens, UniProt P01889, A329T/A93T/A95T/C349S/D201E/D98Y/E187L/E204Q/K202T/N87E/Q94N/R155S/R180L/S121R/S35A/V306I/V36M/Y140S/Y91S); assay: biochemical; type: binding
HLA B*2705 = HLA B*2705 (Homo sapiens, UniProt P01889, D138H/D201E/E176V/E204Q/G107R/H137Y/K202T/N104T/N87E/Q56L/Q94K/R106L/R155S/R180L/S101D/S121N/S48T/Y140D/Y33H/Y91C); type: binding; details: positional scanning combinatorial 9-mer library; normalized to 1.0 for the best residue at each position
HLA B*3501 = HLA B*3501 (Homo sapiens, UniProt P01889, A329T/A93T/A95T/C349S/D201E/D98Y/E176V/E187L/E204Q/E69T/I218V/K202T/L119I/Q94N/R155S/R180L/S121R/S35A/S48A/T118I/V127L/V306I/V36M/Y140S/Y91F); type: binding
HLA B*5101 = HLA B*5101 (Homo sapiens, UniProt P01889, A329T/A93T/A95T/C349S/D138N/D201E/D98Y/E187L/E204Q/E69T/G107R/I218V/K202T/L105A/L119W/N104I/Q94N/R106L/R155S/R180L/S101N/S121T/S35A/S48A/V306I/V36M/Y195H/Y91F); type: binding
HLA B*5301 = HLA B*5301 (Homo sapiens, UniProt P01889, A329T/A93T/A95T/C349S/D201E/D98Y/E176V/E187L/E204Q/E69T/G107R/I218V/K202T/L105A/L119I/N104I/Q94N/R106L/R155S/R180L/S101N/S121R/S35A/S48A/T118I/V127L/V306I/V36M/Y140S/Y91F); type: binding
HLA B*5401 = HLA B*5401 (Homo sapiens, UniProt P01889, A329T/C349S/D138N/D201E/E176V/E187T/E204Q/E69G/I76V/K202T/L119W/R155S/R180L/S121T/S35A/S48A/V127L/V306I/V36M/Y140L); type: binding
HLA B*5801 = HLA B*5801 (Homo sapiens, UniProt P01889, A329T/C349S/D201E/D98Y/E176V/E187L/E204Q/E69T/G107R/I218V/I90N/K202T/L105A/L119I/N104I/N87E/Q89R/Q94S/R106L/R155S/R180L/R86G/S101N/S121R/S35A/S48A/T118I/V127L/V306I/V36M/Y140S/Y91M); type: binding
HLA B*5802 = HLA B*5802 (Homo sapiens, UniProt P01889, A329T/C349S/D201E/D98Y/E176V/E187L/E204Q/E69T/G107R/I218V/I90N/K202T/L105A/N104I/N87E/Q89R/Q94S/R106L/R155S/R180L/R86G/S101N/S121W/S35A/S48A/V127L/V306I/V36M/Y140S/Y91M); type: binding
H-2 D^b = H-2 D^b (Mus musculus, UniProt P01899); type: binding
Sequence of H-2 D^b (P01887 21-119): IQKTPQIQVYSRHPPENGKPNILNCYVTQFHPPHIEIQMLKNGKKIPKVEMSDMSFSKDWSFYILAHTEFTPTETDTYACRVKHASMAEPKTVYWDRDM
Sequence of H-2 D^b (P01899 25-362): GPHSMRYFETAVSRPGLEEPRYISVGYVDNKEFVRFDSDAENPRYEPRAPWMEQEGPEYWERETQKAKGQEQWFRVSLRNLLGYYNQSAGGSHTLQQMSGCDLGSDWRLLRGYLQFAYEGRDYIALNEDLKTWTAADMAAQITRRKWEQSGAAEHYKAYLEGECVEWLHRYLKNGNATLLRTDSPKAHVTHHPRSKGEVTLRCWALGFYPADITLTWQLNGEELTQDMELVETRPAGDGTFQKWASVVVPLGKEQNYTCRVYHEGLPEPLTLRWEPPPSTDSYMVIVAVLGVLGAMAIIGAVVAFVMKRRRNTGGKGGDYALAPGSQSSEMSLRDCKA

H-2 D^d = H-2 D^d (Mus musculus, UniProt P01900); type: binding
Sequence of H-2 D^d (P01900 whole entry, looked up): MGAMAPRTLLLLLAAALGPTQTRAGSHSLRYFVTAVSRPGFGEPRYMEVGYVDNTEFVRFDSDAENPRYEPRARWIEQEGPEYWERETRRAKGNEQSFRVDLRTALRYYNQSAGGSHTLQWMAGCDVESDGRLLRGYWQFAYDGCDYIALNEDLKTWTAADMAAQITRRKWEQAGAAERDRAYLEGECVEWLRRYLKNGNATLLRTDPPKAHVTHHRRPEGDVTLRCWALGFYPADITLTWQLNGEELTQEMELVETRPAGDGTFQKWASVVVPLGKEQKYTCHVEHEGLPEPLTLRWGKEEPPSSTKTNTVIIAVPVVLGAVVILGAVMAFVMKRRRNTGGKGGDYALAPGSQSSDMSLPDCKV

H-2 K^k = H-2 K^k (Mus musculus, UniProt P04223); type: binding
Sequence of H-2 K^k (P01887 21-119): as the sequence (P01887 21-119) above
Sequence of H-2 K^k (P04223 22-369): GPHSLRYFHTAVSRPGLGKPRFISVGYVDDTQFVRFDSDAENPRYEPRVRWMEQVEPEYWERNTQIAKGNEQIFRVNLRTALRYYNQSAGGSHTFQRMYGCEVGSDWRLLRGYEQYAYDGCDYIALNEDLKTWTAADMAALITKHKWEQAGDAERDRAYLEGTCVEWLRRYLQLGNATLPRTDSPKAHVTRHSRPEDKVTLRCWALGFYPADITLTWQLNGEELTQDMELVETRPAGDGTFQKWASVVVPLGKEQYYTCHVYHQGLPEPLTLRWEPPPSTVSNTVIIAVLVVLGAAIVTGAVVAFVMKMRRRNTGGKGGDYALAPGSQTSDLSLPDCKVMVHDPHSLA

HLA A*0201 = HLA A*0201 (Homo sapiens, UniProt P04439, D140Y/D185E/D98H/E176V/E277Q/G131W/G231S/I119V/I121R/I166T/I218V/L300P/L318F/N151K/N90K/P208A/P217A/Q86G/Q94H/R138H/R169H/T345S); details: positional scanning combinatorial 9-mer library; normalized to 1.0 for the best residue at each position

| Sequence | Normalized average relative binding affinity (ARB), HLA A*3001 (HLA A*3001) | Normalized average relative binding affinity (ARB), HLA A*3201 (HLA A*3201) | Normalized average relative binding affinity (ARB), HLA A*6802 (HLA A*6802) | Normalized average relative binding affinity (ARB), HLA B*0702 (HLA B*0702) | Normalized average relative binding affinity (ARB), HLA B*0801 (HLA B*0801) | Normalized average relative binding affinity (ARB), HLA B*1501 (HLA B*1501) | Normalized average relative binding affinity (ARB), HLA B*1503 (HLA B*1503) | Normalized average relative binding affinity (ARB), HLA B*2705 (HLA B*2705) | Normalized average relative binding affinity (ARB), HLA B*3501 (HLA B*3501) | Normalized average relative binding affinity (ARB), HLA B*5101 (HLA B*5101) | Normalized average relative binding affinity (ARB), HLA B*5301 (HLA B*5301) | Normalized average relative binding affinity (ARB), HLA B*5401 (HLA B*5401) | Normalized average relative binding affinity (ARB), HLA B*5801 (HLA B*5801) | Normalized average relative binding affinity (ARB), HLA B*5802 (HLA B*5802) | Normalized average relative binding affinity (ARB), H-2 Db (H-2 D^b) | Normalized average relative binding affinity (ARB), H-2 Dd (H-2 D^d) | Normalized average relative binding affinity (ARB), H-2 Kk (H-2 K^k) | Normalized average relative binding affinity (ARB), HLA A*0201 (HLA A*0201) |
| --- | --- | --- | --- | --- | --- | --- | --- | --- | --- | --- | --- | --- | --- | --- | --- | --- | --- | --- |
| XXFXXXXXX [3064.0045] | 0.041 | 0.98 | 0.82 | 0.067 | 0.19 | 0.83 | 0.62 | 1.0 | 0.49 | 0.65 | 0.19 | 0.11 | 0.52 | 0.41 | 0.099 | 0.0072 | 0.39 | 0.63 |
| XXGXXXXXX [3064.0046] | 0.0022 | 0.20 | 0.061 | 0.052 | 0.086 | 0.14 | 0.063 | 0.17 | 0.068 | 0.078 | 0.046 | 0.025 | 0.12 | 0.17 | 0.13 | 0.0040 | 0.19 | 0.098 |
| XXHXXXXXX [3064.0047] | 0.089 | 0.24 | 0.14 | 0.39 | 0.35 | 0.68 | 0.19 | 0.26 | 0.094 | 0.60 | 0.059 | 0.013 | 0.19 | 0.42 | 0.20 | 0.0028 | 0.72 | 0.27 |
